From US11718619B2, “Isoxazolyl-carbonyloxy azabicyclo[3.2.1]octanyl compounds as FXR activators” (ARDELYX, INC., priority 2016, dated 2023)

How the values were obtained:
[1] = target: ligand binding domain of human FXR (Homo sapiens (Human), UniProt Q96RI1); experiment: FXR ligand binding assay (LanthaScreen FRET); conditions: for % Efficacy: extent of activation relative to GW4064; for Emax: read-out: % Efficacy
Procedure: The affinity of FXR ligands for the ligand binding domain of FXR was determined using a commercially available human FXR ligand binding assay (LanthaScreen, Thermofisher Cat #PV4833). […] Binding of FXR ligands to the FXR ligand binding domain promotes binding of the fluorescein-labelled SRC2-2 peptide. This causes a FRET signal between the terbium-labelled anti-GST antibody and the fluorescein-labelled SRC peptide which are both bound to the FXR ligand binding domain.
Test compounds are dissolved in DMSO and a 3-fold serial dilution series is generated, then further diluted into assay buffer. The compounds are mixed with 5 nM GST-tagged FXR ligand binding domain, 5 nM Tb-labelled anti-GST antibody and 500 nM fluorescein-labelled SRC2-2 peptide in a pH 7.4 buffer. The reaction is incubated at room temperature for 1 hour, then the FRET signal is measured as the ratio of the 520 nm/495 nm emission following excitation at 340 nm. The change in FRET signal is plotted against the test article concentration and fit to a 3-parameter logistical equation.

[2] = target: human Famesoid X receptor ligand-binding domain/Gal4 DNA binding domain chimera (Homo sapiens (Human), UniProt Q96RI1); experiment: Cellular FXR beta-lactamase reporter assay (FXR-UAS-bla HEK 293T); format: cell-based; conditions: for Emax: HEK-293T, read-out: % Efficacy; for EC50: read-out: FXR pEC50 (converted); for % Efficacy: extent of activation relative to GW4064
Procedure: FXR activation was measured using a cell line and procedure obtained from Life Technologies (Cat #K1691). FXR-UAS-&/a HEK 293T cells contain a human Famesoid X receptor ligand-binding domain/Gal4 DNA binding domain chimera stably integrated into the CellSensor® UAS-bla HEK293T cell line. The CellSensor® UAS-bla HEK293T contains a beta-lactamase reporter gene under control of a UAS response element stably integrated into HEK 293T cells. Activation of FXR by bound ligands results in transcriptional activation of the beta-lactamase reporter gene, which is detected via assay of beta-lactamase activity.
Cells are harvested and diluted into assay medium containing phenol red-free DMEM supplemented with 2% Charcoal-stripped FBS, pyruvate, non-essential amino acids. Cells are then transferred to a 384 well assay plate. Test compounds are dissolved in DMSO and a 3-fold serial dilution series is generated, then further diluted into assay medium. Compounds in assay medium are added to cells in the 384 well plate and allowed to incubate 16 h at 37 C in the presence of 5% CO2.
A FRET-based […] (CCF4) is loaded into cells as its acetomethoxy ester. Intracellular esterases liberate free CCF4, a cephalosporin core linking 7-hydroxycoumarin to fluorescein. In the presence of beta-lactamase activity produced in the presence of FXR agonists, cleavage of CCF4 spatially separates the two dyes and disrupts FRET, so that exciting the coumarin at 409 nm now produces a blue fluorescence signal at 447 nm. The change in FRET signal is plotted against the test compound concentration and fit to a 3-parameter logistical equation.

[3] = system: fibroblast growth factor 19 (FGF19) secretion in human ileum; experiment: Human Ileum APECCS (FGF19); format: cell-based; conditions: relative to GW4064
[4] = system: C57BL/6 male mice fed a Western diet; experiment: Western diet study; format: in vivo, C57BL/6 mice
Procedure: Six-week-old C57BL/6 male mice were fed a Western diet (WD) (62% fat/0.2% cholesterol). […] An additional control group (lean) was fed a standard rodent chow throughout the study. Body weight measurements and serum samples (tail bleed) were taken weekly. After 6 weeks of treatment, all animals were sacrificed and hepatosteatosis-related endpoints and other liver markers were measured.
Total RNA from mouse tissues was isolated and used for library preparation. Library samples were multiplexed ahead of mRNA sequencing.

human Famesoid X receptor ligand-binding domain/Gal4 DNA binding domain chimera, sequence (Q96RI1 262-486, stated change not applied): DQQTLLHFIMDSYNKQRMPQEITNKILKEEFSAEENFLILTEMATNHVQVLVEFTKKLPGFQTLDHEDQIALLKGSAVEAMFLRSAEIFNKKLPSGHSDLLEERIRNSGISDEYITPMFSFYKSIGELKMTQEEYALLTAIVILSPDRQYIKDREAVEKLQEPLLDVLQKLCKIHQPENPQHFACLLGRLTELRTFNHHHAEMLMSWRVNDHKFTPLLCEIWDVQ
ligand binding domain of human FXR, sequence (Q96RI1 262-486): as the sequence (Q96RI1 262-486, stated change not applied) above

| Compound | Emax [1] [%] | Emax [2] [%] | EC50 [2] [nM] | also measured |
| --- | --- | --- | --- | --- |
| 2-[(1R,3S,5S)-3-(5-cyclopropyl-3-{4-methoxybicyclo[2.2.2]octan-1-yl}-1,2-oxazole-4-carbonyloxy)-8-azabicyclo[3.2.1]octan-8-yl]-4-(trifluoromethoxy)-1,3-benzothiazole-6-carboxylic acid [Compound I-58] | – | – | – | % Efficacy [1]: 22%; FXR pEC50 ([1]; pEC50 = −log EC50, FRET signal, SRC2-2 peptide): >4.4; FXR pEC50 ([2]; pEC50 = −log EC50, 16 h incubation): >4.5 |
| CC(C)(C)c1onc(-c2c(Cl)cccc2Cl)c1C(=O)OC1C[C@H]2CC[C@@H](C1)N2c1nc2c(F)cc(C(=O)O)cc2s1 (single isomer, unassigned) [Compound I-25] | 56 | 100 | 25.1 | – |
| CC1(c2onc(-c3c(Cl)cccc3Cl)c2C(=O)OC2C[C@H]3CC[C@@H](C2)N3c2nc3c(F)cc(C(=O)O)cc3s2)CC1 (single isomer, unassigned) [Compound I-26] | 75 | 106 | 31.6 | – |
| O=C(O)c1cc(F)c2nc(N3[C@@H]4CC[C@H]3C[C@@H](OC(=O)c3c(-c5ccccc5)noc3C3CC3)C4)sc2c1 [Compound I-13, 2-[(1R,3R,5S)-3-(5-Cyclopropyl-3-phenyl-1,2-oxazole-4-carbonyloxy)-8-azabicyclo[3.2.1]octan-8-yl]-4-fluoro-1,3-benzothiazole-6-carboxylic acid] | 40 | 93 | 1000 | – |
| O=C(O)c1cc(F)c2nc(N3[C@@H]4CC[C@H]3C[C@@H](OC(=O)c3c(-c5ccccc5OC(F)(F)F)noc3C3CC3)C4)sc2c1 [Compound I-14, 2-[(1R,3R,5S)-3-{5-cyclopropyl-3-[2-(trifluoromethoxy)phenyl]-1,2-oxazole-4-carbonyloxy}-8-azabicyclo[3.2.1]octan-8-yl]-4-fluoro-1,3-benzothiazole-6-carboxylic acid] | 147 | 116 | 7.94 | – |
| O=C(O)c1cc(F)c2nc(N3[C@@H]4CC[C@H]3C[C@@H](OC(=O)c3c(-c5c(Cl)cccc5OC(F)F)noc3C3CC3)C4)sc2c1 [Compound I-15, 2-[(1R,3R,5S)-3-{3-[2-chloro-6-(difluoromethoxy)phenyl]-5-cyclopropyl-1,2-oxazole-4-carbonyloxy}-8-azabicyclo[3.2.1]octan-8-yl]-4-fluoro-1,3-benzothiazole-6-carboxylic acid] | 71 | 108 | 39.8 | – |
| O=C(O)c1cc(F)c2nc(N3[C@@H]4CC[C@H]3C[C@@H](OC(=O)c3c(-c5c(F)cccc5F)noc3C3CC3)C4)sc2c1 [Compound I-16, 2-[(1R,3R,5S)-3-[5-cyclopropyl-3-(2,6-difluorophenyl)-1,2-oxazole-4-carbonyloxy]-8-azabicyclo[3.2.1]octan-8-yl]-4-fluoro-1,3-benzothiazole-6-carboxylic acid] | 47 | 110 | 200 | – |
| O=C(O)c1cc(F)c2nc(N3[C@@H]4CC[C@H]3C[C@@H](OC(=O)c3c(C5CCC6(CC5)CC6)noc3C3CC3)C4)sc2c1 [Compound I-19, 2-[(1R,3R,5S)-3-(5-cyclopropyl-3-{spiro[2.5]octan-6-yl}-1,2-oxazole-4-carbonyloxy)-8-azabicyclo[3.2.1]octan-8-yl]-4-fluoro-1,3-benzothiazole-6-carboxylic acid] | 55 | 79 | 158 | – |
| O=C(O)c1cc(F)c2nc(N3[C@@H]4CC[C@H]3C[C@@H](OC(=O)c3c(C56CCC(CC5)CC6)noc3C3CC3)C4)sc2c1 [Compound I-20, 2-[(1R,3R,5S)-3-(3-{Bicyclo[2.2.2]octan-1-yl}-5-cyclopropyl-1,2-oxazole-4-carbonyloxy)-8-azabicyclo[3.2.1]octan-8-yl]-4-fluoro-1,3-benzothiazole-6-carboxylic acid] | – | – | – | % Efficacy [2]: 22% |
| Cc1onc(-c2c(Cl)cccc2Cl)c1C(=O)O[C@H]1C[C@H]2CC[C@@H](C1)N2c1nc2c(F)cc(C(=O)O)cc2s1 [Compound I-23, 2-[(1R,3S,5S)-3-[3-(2,6-dichlorophenyl)-5-methyl-1,2-oxazole-4-carbonyloxy]-8-azabicyclo[3.2.1]octan-8-yl]-4-fluoro-1,3-benzothiazole-6-carboxylic acid] | 37 | 100 | 158 | – |
| O=C(O)c1cc(F)c2nc(N3[C@@H]4CC[C@H]3C[C@@H](OC(=O)c3c(-c5c(Cl)cccc5Cl)noc3C3CCC3)C4)sc2c1 [Compound I-24, 2-[(1R,3R,5S)-3-[5-cyclobutyl-3-(2,6-dichlorophenyl)-1,2-oxazole-4-carbonyloxy]-8-azabicyclo[3.2.1]octan-8-yl]-4-fluoro-1,3-benzothiazole-6-carboxylic acid] | 64 | 98 | 31.6 | – |
| O=C(O)c1cc(F)c2nc(N3[C@@H]4CC[C@H]3C[C@@H](OC(=O)c3c(-c5c(Cl)cccc5Cl)noc3C3(F)CC3)C4)sc2c1 [Compound I-27, 2-[(1R,3R,5S)-3-[3-(2,6-dichlorophenyl)-5-(1-fluorocyclopropyl)-1,2-oxazole-4-carbonyloxy]-8-azabicyclo[3.2.1]octan-8-yl]-4-fluoro-1,3-benzothiazole-6-carboxylic acid] | 107 | 108 | 3.98 | – |
| Cn1c(N2[C@@H]3CC[C@H]2C[C@@H](OC(=O)c2c(-c4c(Cl)cccc4Cl)noc2C2CC2)C3)nc2c(F)cc(C(=O)O)cc21 [Compound I-31, 2-[(1R,3R,5S)-3-[5-cyclopropyl-3-(2,6-dichlorophenyl)-1,2-oxazole-4-carbonyloxy]-8-azabicyclo[3.2.1]octan-8-yl]-4-fluoro-1-methyl-1H-1,3-benzodiazole-6-carboxylic acid] | – | 100 | 398 | – |
| O=C(Cc1c(-c2c(Cl)cccc2Cl)noc1C1CC1)O[C@H]1C[C@H]2CC[C@@H](C1)N2c1nc2c(F)cc(C(=O)O)cc2s1 [Compound I-32, 2-[(1R,3R,5S)-3-({2-[5-cyclopropyl-3-(2,6-dichlorophenyl)-1,2-oxazol-4-yl]acetyl}oxy)-8-azabicyclo[3.2.1]octan-8-yl]-4-fluoro-1,3-benzothiazole-6-carboxylic acid] | 34 | 86 | 398 | – |
| CCCS(=O)(=O)NC(=O)c1ccc(N2[C@@H]3CC[C@H]2C[C@@H](OC(=O)c2c(-c4c(Cl)cccc4Cl)noc2C2CC2)C3)cc1 [Compound I-45, (1R,3R,5S)-8-{4-[(propane-1-sulfonyl)carbamoyl]phenyl}-8-azabicyclo[3.2.1]octan-3-yl 5-cyclopropyl-3-(2,6-dichlorophenyl)-1,2-oxazole-4-carboxylate] | – | – | – | % Efficacy [1]: 130%; % Efficacy [2]: 128% |
| CCCCCS(=O)(=O)NC(=O)c1ccc(N2[C@@H]3CC[C@H]2C[C@@H](OC(=O)c2c(-c4c(Cl)cccc4Cl)noc2C2CC2)C3)cc1 [Compound I-46, (1R,3R,5S)-8-{4-[(pentane-1-sulfonyl)carbamoyl]phenyl}-8-azabicyclo[3.2.1]octan-3-yl 5-cyclopropyl-3-(2,6-dichlorophenyl)-1,2-oxazole-4-carboxylate] | – | – | – | % Efficacy [1]: 146%; % Efficacy [2]: 110% |
| O=C(NS(=O)(=O)C1CC1)c1ccc(N2[C@@H]3CC[C@H]2C[C@H](OC(=O)c2c(-c4c(Cl)cccc4Cl)noc2C2CC2)C3)cc1 [Compound I-48, (1R,3S,5S)-8-{4-[(cyclopropanesulfonyl)carbamoyl]phenyl}-8-azabicyclo[3.2.1]octan-3-yl 5-cyclopropyl-3-(2,6-dichlorophenyl)-1,2-oxazole-4-carboxylate] | – | – | – | % Efficacy [2]: 130% |
| CC(C)c1onc(-c2c(Cl)cccc2Cl)c1COc1ccc(/C=C/c2cccc(C(=O)O)c2)c(Cl)c1 [GW4064] | – | – | – | Activity, % (n) [3]: 100 ± 0 (154) % |
| O=C(O)c1ccc([C@H]2C[C@@H]2c2ccc(OCc3c(-c4c(Cl)cccc4Cl)noc3C3CC3)cc2Cl)cc1 [Px-102] | – | – | – | Activity, % (n) ([1]; Human FXR Binding (FRET), relative to GW4064): 90 ± 15 (3) %; liver Cyp7a1 gene expression [4]: downregulated; hepatosteatosis related endpoints (including liver triglycerides and liver cholesterol) ([4]; 6 weeks of treatment): normalized; macrovesicular steatosis (score) ([4]; 6 weeks of treatment): reduced; serum FGF15 concentration ([4]; 6 weeks of treatment): further increased; serum cholesterol ([4]; 6 weeks of treatment): reduced |
